# Measurements published in patent US10696949B2, “Systems and methods for canine liver modeling” (Hepregen Corporation, priority 2015, dated 2020).
# Read-outs that look alike come from different tables or passages of the source.
# Assays:
# Assay type in all cases: cell-based
# dog hepatocytes = assay: Dog hepatocyte hypertrophy in standard HepatoPac micropatterned co-culture
# Method: In order to create micropatterned co-cultures, hepatocytes were seeded in serum-free hepatocyte medium on collagen-patterned 24-well cell culture plates, resulting in a hepatocyte pattern due to selective cell adhesion. The cells were washed with media 2 to 6 hours later to remove unattached cells and incubated with serum supplemented hepatocyte medium overnight. 3T3-J2 or BJ fibroblasts were seeded in serum-supplemented fibroblast medium 12-24 hours later to create co-cultures. Culture medium was replaced with hepatocyte medium 24 hours after fibroblast seeding and subsequently replaced every one to two days. Spent media was stored for biochemical assays.
# (§1) Hepatocyte growth factor (HGF) was implicated as one of the contributing factors causing dog hepatocyte hypertrophy and motility in the co-culture (data not shown). […] In summation, chemical inhibition (for example, via dexamethasone and TGFB2) of HGF secretion in the standard HepatoPac™ format is sufficient to abrogate hepatocyte hypertrophy.
# HGF = HGF secretion in standard HepatoPac co-culture under chemical inhibition; conditions: standard HepatoPac format
# Text: as §1
# hepatocytes = assay: Hepatocyte hypertrophy in sandwich cultures with soluble HGF; conditions: soluble HGF alone, data not shown
# Text: as §1
Molecule,dog hepatocyte hypertrophy (dog hepatocytes),HGF level (secretion) (HGF),"dog hepatocyte hypertrophy (dog hepatocytes; standard HepatoPac format, 3T3-J2 stromal cells)",hepatocyte hypertrophy (hepatocytes)
C[C@@H]1C[C@H]2[C@@H]3CCC4=CC(=O)C=C[C@]4(C)[C@@]3(F)[C@@H](O)C[C@]2(C)[C@@]1(O)C(=O)CO [dexamethasone],diminished hypertrophy,–,–,–
TGFB2: HGF-inhibiting agent; known chemical inhibitor of HGF secretion,diminished hypertrophy,HGF knockdown,–,–
O=C1c2ccccc2-n2c1nc1ccccc1c2=O [tryptanthrin],–,reduction in HGF,decreased dog hepatocyte hypertrophy,–
"Soluble human HGF: Hepatocyte growth factor, soluble human protein added to sandwich cultures",–,–,–,did not result in hepatocyte hypertrophy
C[C@H](CCC(=O)O)[C@H]1CC[C@H]2[C@@H]3[C@@H](O)C[C@@H]4C[C@H](O)CC[C@]4(C)[C@H]3CC[C@]12C [UDCA],decreased dog hepatocyte hypertrophy,reduction in HGF,–,–
